What was measured:
Experiment in all cases: relative viability (nuclei count vs DMSO), 5 days (fraction); higher = more cells survive
BX 795 + Pemetrexed = compound: O=C(NCCCNc1nc(Nc2cccc(NC(=O)N3CCCC3)c2)ncc1I)c1cccs1 [BX 795] + Nc1nc2[nH]cc(CCc3ccc(C(=O)N[C@@H](CCC(=O)O)C(=O)O)cc3)c2c(=O)[nH]1 [Pemetrexed] (partner 0.2 µM)
Outline: (§1)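 Five library-drug doses in √10 steps were combined with a fixed anchor-drug dose, or a single drug was given alone, by pin tool to lung cancer cell lines in 1536-well plates the day after seeding. Nuclei were stained and counted after 5 days. Relative viability is the nuclei count in treated wells over that in vehicle wells, taken as the median of duplicate plates.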

BX 795 + Luminespib = compound: O=C(NCCCNc1nc(Nc2cccc(NC(=O)N3CCCC3)c2)ncc1I)c1cccs1 [BX 795] + CCNC(=O)c1noc(-c2cc(C(C)C)c(O)cc2O)c1-c1ccc(CN2CCOCC2)cc1 [Luminespib] (partner 0.01 µM)
Outline: as §1

BX 795 + Trametinib = compound: O=C(NCCCNc1nc(Nc2cccc(NC(=O)N3CCCC3)c2)ncc1I)c1cccs1 [BX 795] + CC(=O)Nc1cccc(-n2c(=O)n(C3CC3)c(=O)c3c(Nc4ccc(I)cc4F)n(C)c(=O)c(C)c32)c1 [Trametinib] (partner 0.02 µM)
Outline: as §1

BX 795 + Alpelisib = compound: O=C(NCCCNc1nc(Nc2cccc(NC(=O)N3CCCC3)c2)ncc1I)c1cccs1 [BX 795] + Cc1nc(NC(=O)N2CCC[C@H]2C(N)=O)sc1-c1ccnc(C(C)(C)C(F)(F)F)c1 [Alpelisib] (partner 2 µM)
Outline: as §1

BX 795 + Lapatinib = compound: O=C(NCCCNc1nc(Nc2cccc(NC(=O)N3CCCC3)c2)ncc1I)c1cccs1 [BX 795] + CS(=O)(=O)CCNCc1ccc(-c2ccc3ncnc(Nc4ccc(OCc5cccc(F)c5)c(Cl)c4)c3c2)o1 [Lapatinib] (partner 2 µM)
Outline: as §1

Row | Cell Line | relative viability (BX 795 + Pemetrexed; first compound 0.04 µM) | relative viability (BX 795 + Pemetrexed; first compound 0.1265 µM) | relative viability (BX 795 + Pemetrexed; first compound 0.4 µM) | relative viability (BX 795 + Pemetrexed; first compound 1.265 µM) | relative viability (BX 795 + Luminespib; first compound 0.04 µM) | relative viability (BX 795 + Luminespib; first compound 0.1265 µM) | relative viability (BX 795 + Luminespib; first compound 0.4 µM) | relative viability (BX 795 + Luminespib; first compound 1.265 µM) | relative viability (BX 795 + Trametinib; first compound 0.04 µM) | relative viability (BX 795 + Trametinib; first compound 0.1265 µM) | relative viability (BX 795 + Trametinib; first compound 0.4 µM) | relative viability (BX 795 + Trametinib; first compound 1.265 µM) | relative viability (BX 795 + Alpelisib; first compound 0.04 µM) | relative viability (BX 795 + Alpelisib; first compound 0.1265 µM) | relative viability (BX 795 + Alpelisib; first compound 0.4 µM) | relative viability (BX 795 + Alpelisib; first compound 1.265 µM) | relative viability (BX 795 + Lapatinib; first compound 0.04 µM) | relative viability (BX 795 + Lapatinib; first compound 0.1265 µM) | relative viability (BX 795 + Lapatinib; first compound 0.4 µM) | relative viability (BX 795 + Lapatinib; first compound 1.265 µM)
1 | NCI-H1437 | 0.277 | 0.305 | 0.257 | 0.321 | 1.13 | 1.14 | 1.17 | 1.12 | 0.496 | 0.605 | 0.516 | 0.538 | 1.02 | 1.06 | 1.01 | 0.863 | 0.833 | 0.858 | 0.782 | 0.547
2 | NCI-H1651 | 0.602 | 0.571 | 0.409 | 0.596 | 0.982 | 0.987 | 0.78 | 0.511 | 0.847 | 0.87 | 0.879 | 0.824 | 0.933 | 1.02 | 0.881 | 0.782 | 0.756 | 0.801 | 0.764 | 0.64
3 | NCI-H1666 | 0.836 | 0.83 | 0.697 | 0.79 | 1 | 1.04 | 1.07 | 0.893 | 0.856 | 0.884 | 0.974 | 0.802 | 1.07 | 1.11 | 1.01 | 0.799 | 0.858 | 0.653 | 0.695 | 0.656
4 | NCI-H1734 | 0.348 | 0.421 | 0.33 | 0.398 | 0.173 | 0.209 | 0.154 | 0.149 | 0.714 | 0.651 | 0.69 | 0.562 | 0.699 | 0.658 | 0.708 | 0.424 | 0.993 | 1.15 | 0.79 | 0.801
5 | NCI-H1755 | 0.42 | 0.44 | 0.381 | 0.447 | 0.635 | 0.412 | 0.283 | 0.388 | 0.849 | 0.763 | 0.793 | 0.665 | 0.929 | 0.9 | 0.93 | 0.63 | 1.03 | 1.05 | 0.999 | 0.861
6 | NCI-H1792 | 0.918 |  | 0.882 | 0.533 | 0.477 | 0.336 | 0.432 | 0.384 | 0.425 |  | 0.525 | 0.509 | 0.705 | 0.904 | 0.706 | 0.572 | 0.872 | 0.903 | 0.981 | 0.842
7 | NCI-H1793 | 0.872 | 0.628 | 0.856 | 0.711 | 0.153 | 0.137 | 0.168 | 0.182 | 0.404 | 0.403 | 0.526 | 0.344 | 0.675 | 0.775 | 0.647 | 0.613 | 0.534 | 0.682 | 0.875 | 0.785
8 | NCI-H1915 | 0.347 | 0.458 | 0.304 | 0.442 | 0.688 | 0.891 | 0.71 | 0.624 | 0.315 | 0.271 | 0.304 | 0.265 | 1.11 | 1.08 | 1.14 | 0.928 | 0.947 | 0.951 | 0.947 | 0.827
9 | NCI-H1944 | 0.616 | 0.577 | 0.41 | 0.606 | 0.739 | 0.729 | 0.758 | 0.595 | 0.467 | 0.377 | 0.538 | 0.374 | 0.959 | 0.806 | 0.893 | 0.754 | 0.903 | 0.781 | 0.879 | 0.642
10 | NCI-H1975 | 0.272 | 0.299 | 0.247 | 0.297 | 0.228 | 0.427 | 0.139 | 0.183 | 0.383 | 0.358 | 0.316 | 0.316 | 0.6 | 0.671 | 0.626 | 0.406 | 0.903 | 0.982 | 0.727 | 0.512
11 | NCI-H1993 | 0.624 | 0.616 | 0.623 | 0.585 | 0.686 | 1.1 | 0.726 | 0.532 | 0.554 | 0.439 | 0.504 | 0.561 | 0.583 | 0.655 | 0.641 | 0.689 | 0.848 | 0.786 | 0.79 | 0.658
12 | NCI-H2009 | 0.973 | 0.978 | 1.04 | 0.907 | 1.02 | 0.932 | 1.11 | 0.83 | 0.264 | 0.227 | 0.274 | 0.179 | 1.14 | 1.06 | 1.34 | 0.836 | 0.912 | 0.86 | 0.988 | 0.671
13 | NCI-H2023 | 0.257 | 0.221 | 0.139 | 0.182 | 0.766 | 0.613 | 0.442 | 0.272 | 0.797 | 0.468 | 0.456 | 0.233 | 0.543 | 0.575 | 0.45 | 0.352 | 0.538 | 0.749 | 0.32 | 0.522
14 | NCI-H2085 | 0.848 | 0.865 | 0.919 | 0.899 | 0.38 | 0.416 | 0.441 | 0.332 | 0.645 | 0.512 | 0.669 | 0.484 | 1.09 | 0.98 | 1.14 | 0.863 | 0.881 | 0.781 | 0.741 | 0.642
15 | NCI-H2087 | 0.695 | 0.655 | 0.696 | 0.654 | 0.188 | 0.199 | 0.157 | 0.147 | 0.235 | 0.163 | 0.242 | 0.221 | 1.08 | 1.18 | 1.29 | 0.752 | 1.24 | 1.05 | 1.08 | 0.975
16 | NCI-H2126 | 0.713 | 0.692 | 0.457 | 0.666 | 0.902 | 0.955 | 0.812 | 0.944 | 0.611 | 0.537 | 0.685 | 0.534 | 0.768 | 0.763 | 0.876 | 0.728 | 0.728 | 0.752 | 0.837 | 0.767
